Earlier results on 1 compound are cited in patent publication US5637565A, “Purified form of streptogramins, its preparation and pharmaceutical compositions containing it” (Rhone-Poulenc Rorer S.A., priority 1993, dated 1997).

The conditions of this series: purified crystalline product.

`CC1=C\[C@@H](O)CC(=O)Cc2nc(co2)C(=O)N2CCC=C2C(=O)O[C@H](C(C)C)[C@H](C)/C=C/C(=O)NC\C=C\1` [pristinamycin IIA]: the bioavailability entry is given as “too low”.
